“And” between values parts separate entries of the source, which are not always exact repeats. Equal values may be shown once.
Key:
[1] = tested on: H460 (large cell carcinoma) cells; assay: In vitro cell viability assay, H460 cells; format: cell-based, human; details: cell line H460; HSV-1716 at an MOI of 0.1, mitomycin C at 0.1 micromolar
Protocol: Individual chemotherapeutic agents were then added to selected wells.
Each treatment experiment was performed at least twice.

H460 tumors = assay: In vivo xenograft flank model; parameters: species or system SCID mice; details: 22 days after injection of H460 cells
Protocol: The combined effects of mitomycin C and HSV-1716 using NSCLC tumors was assessed in vivo as follows. Cells of line H460 were implanted subcutaneously in the flanks of severe combined immunodeficient (SCID) mice. […] HSV-1716 was injected directly into individual tumors at a dose of 4×10^6 plaque forming units (pfu) in 200 microliters of medium. Control mice were injected with medium alone. Twenty-four hours later, 0.17 milligrams per kilogram body weight mitomycin C or an equivalent amount of PBS was administered to separate groups of HSV-treated and control mice. Tumor volume was estimated in all mice at regular intervals. Tumor volume in cubic millimeters was estimated using the formula
where TLmm was tumor length in millimeters and TWmm was tumor width in millimeters. Tumor growth curves were generated using the estimated values for tumor volume. After a period of 3-4 weeks, mice were sacrificed and their tumors were weighed.
In order to assess the oncolytic effect of mitomycin C in combination with HSV-1716, a murine xenograft model was used. […] These doses were designated ‘sufficient doses.’ H460 tumor cells were injected into the flanks of SCID mice. […] At that time, about 4×10^6 pfu of HSV-1716 or an equivalent volume of culture medium was injected into individual tumors. […]

HSV-1716 in H460 cells = assay: One step growth curve, H460 cells (black plaque assay); format: cell-based, herpes simplex virus type 1; details: for burst size of HSV-1716: H460, MOI 0.1
Protocol: H460 cells were incubated overnight in six-well plates at a density of about 300,000 cells per well under standard culture condition. Following this incubation, the cells were infected with HSV-1716 at an MOI of 0.1 pfu. In a parallel experiment with five different experimental arms, the following procedures were performed. In the first and second arms, the cells were incubated in the presence of 0.1 micromolar mitomycin C or an equivalent additional volume of culture medium. Mediun or medium containing mitomycin C was added to the wells for 3 hours, either immediately before (in the first arm) or immediately following (in the second arm) infection of the cells with HSV-1716. In the other three arms, medium containing 0.1, 1.0, or 3.0 micromolar mitomycin C was added to the wells for 48 hours following infection of the cells with HSV-1716.
Cells were harvested from individual wells 1, 6, 19, 24, or 48 hours following infection. Cells were harvested by scraping cells from the walls of their well into the medium contained within the well. Harvested cells were stored at −80° C. Cell samples were titered by black plaque assay using baby hamster kidney cell (BHK) monolayers as described (Kucharczuk et al., 1997, Cancer Res. 57:466-471).
In order to examine what effect mitomycin C might have on viral replication, one step growth curve experiments were performed. H460 cells were infected with HSV-1716 at an MOI of 0.1, and then 0.1 or 1.0 or 3.0 micromolar mitomycin C was added to the cell culture medium. At selected times, cells were harvested and titered by black plaque assay as described herein. […] Addition of 1.0 or 3.0 micromolar mitomycin C for 48 hours after infection reduced burst size (13.7 and 0.2, respectively).

HSV-1716 in A549 cells = assay: One step growth curve, A549 cells; format: cell-based, herpes simplex virus type 1; details: cell line A549; low dose mitomycin C (0.1 micromolar)

With `CO[C@@]12[C@H](COC(N)=O)C3=C(C(=O)C(C)=C(N)C3=O)N1C[C@@H]1N[C@@H]12` [mitomycin C] the cell survival [1] was 96.7%, the “final mean tumor burden (tumor weight)” value (H460 tumors; HSV-1716 4×10^6 pfu intratumoral day 7, mitomycin C 0.17 mg/kg i.v. day 8, n=14) was 1.122±0.070 grams and the “reduction of tumor burden relative to the control” value (H460 tumors; HSV-1716 4×10^6 pfu intratumoral, mitomycin C 0.17 mg/kg i.v.) was 20.2% and 21.8%. The “burst size of HSV-1716” value (HSV-1716 in H460 cells; 1.0 micromolar mitomycin C for 48 hours after infection) was 13.7, the “burst size of HSV-1716” value (HSV-1716 in H460 cells; 3.0 micromolar mitomycin C for 48 hours after infection) was 0.2 and the “burst size of HSV-1716” value (HSV-1716 in H460 cells; post-treatment with 0.1 micromolar mitomycin C for 3 hours) was 57.1. The “burst size of HSV-1716” value (HSV-1716 in H460 cells; post-treatment with 0.1 micromolar mitomycin C for 48 hours) was 53.3, the “burst size of HSV-1716” value (HSV-1716 in H460 cells; pre-treatment with 0.1 micromolar mitomycin C for 3 hours) was 42.1 and the “effect on burst size of HSV-1716” value (HSV-1716 in H460 cells; cell line H460, low dose mitomycin C (0.1 micromolar)) was “Neither Augmented nor Reduced”. The “effect on burst size of HSV-1716” value (HSV-1716 in A549 cells) was “Neither Augmented nor Reduced”.
